This is an account of results in ChEMBL document CHEMBL4396894, “The photodynamic activities of dimethyl 131-[2-(guanidinyl)ethylamino] chlorin e6 photosensitizers in A549 tumor” (Eur J Med Chem, 2019).

Data set [1] has as its system A549. Briefly: Dark toxicity in human A549 cells assessed as reduction in cell viability at 0.1 to 0.9 uM after 24 hrs by MTT assay. The format is cell-based. As to conditions: a549, 24 h.
Data set [2] concerns A549. As to the kind of experiment: Dark toxicity in human A549 cells xenografted in BALB/c nude mouse assessed as reduction in tumor growth at 0.15 mg/kg, iv measured up to 14 days. The data set is classed as organism-based. To be noted: in vivo, 336 h. On the technique in general: A xenograft is tissue or cells of one species grown in another, often human tumour cells in immunodeficient mice.

In data set [3] the test system is A549. Briefly: Photodynamic antitumor activity against human A549 cells xenografted in BALB/c nude mouse assessed as tumor growth inhibition at 0.4 mg/kg, iv irradiated with laser light at 120 J/cm2 measured up to 14 days. The data set is classed as functional. As to conditions: A549, light or radiation study, 336 h, read-out: TGI.
Data set [4] can be described thus: Absorption property of the compound in DMSO assessed as maximum absorption wavelength at 1 to 20 uM by UV-Vis spectra analysis. The format is physicochemical.
Data set [5] can be described thus: Emission property of a compound in DMSO assessed as red shift at 5 uM by 3D fluorescence spectra analysis. The data set is classed as physicochemical.
Data set [6] in a line: Photobleaching property of the compound in DMSO at 10 uM irradiated with 650 nm laser light measured up to 90 mins by absorption spectra analysis.
Data set [7] is described as follows: Induction of singlet oxygen generation in DMF solution assessed as singlet oxygen quantum yield irradiated with 650 nanometer laser light for 5 to 30 secs measured immediately by DPBF-based assay. The data set is classed as functional.
Data set [8] is described as follows: Drug uptake in human A549 cells measured after 1 to 24 hrs by fluorescence spectrophotometry. The format is ADME, cell-based.
Data set [9] has as its system A549. As to the kind of experiment: Photodynamic cytotoxicity against human A549 cells assessed as reduction in cell viability preincubated for 24 hrs followed by compound washout and subsequent 650 nanometer laser light irradiation at 0.5 J/cm2 measured by MTT assay. The data set is classed as functional, cell-based. As to conditions: A549, light or radiation study. In general terms: Formazan colour is commonly taken as a measure of viable cells.

Data set [10] has as its system A549. As to the kind of experiment: Photodynamic cytotoxicity against human A549 cells assessed as reduction in cell viability preincubated for 24 hrs followed by compound washout and subsequent 650 nanometer laser light irradiation at 0.5 to 2 J/cm2 measured by MTT assay. The data set is classed as functional, cell-based.
In data set [11] the test system is A549. Briefly: Photodynamic cytotoxicity against human A549 cells assessed as reduction in cell viability preincubated for 24 hrs followed by compound washout and subsequent 650 nanometer laser light irradiation at 1 J/cm2 measured by MTT assay. The data set is classed as functional, cell-based. As to conditions: A549, light or radiation study.
Data set [12] has as its system A549. Briefly: Photodynamic cytotoxicity against human A549 cells assessed as reduction in cell viability preincubated for 24 hrs followed by compound washout and subsequent 650 nanometer laser light irradiation at 2 J/cm2 measured by MTT assay. The data set is classed as functional, cell-based. To be noted: A549, light or radiation study.
The subject of data set [13] is A549. As to the kind of experiment: Induction of intracellular ROS generation in human A549 cells at 1 uM preincubated for 4 hrs followed by compound washout measured under 650 nanometer laser light irradiation at 2 J/cm2 by DCFDA dye-based fluorescence microscopic analysis. The data set is classed as functional, cell-based.
Data set [14] in a line: Drug localization in mitochondria of human A549 cells at 1 uM after 4 hrs by mito-tracker green based laser confocal microscopic analysis. The format is ADME. To be noted: a549, 4 h.
Data set [15] is described as follows: Drug localization in lysosome of human A549 cells at 1 uM after 4 hrs by lyso-tracker blue based laser confocal microscopic analysis. The format is ADME, subcellular. To be noted: a549, 4 h.
The nature of data set [16]: Drug localization in endoplasmic reticulum of human A549 cells at 1 uM after 4 hrs by DiOC6(3) ER-tracker green based laser confocal microscopic analysis. The format is ADME, subcellular. To be noted: a549, 4 h.
The test system of data set [17] is A549. Briefly: Photodynamic antitumor activity against human A549 cells xenografted in BALB/c nude mouse assessed as decrease in tumor growth at 0.15 mg/kg, iv irradiated with laser light at 120 J/cm2 measured up to 14 days. The data set is classed as functional, organism-based.
Data set [18] deals with A549. As to the kind of experiment: Photodynamic antitumor activity against human A549 cells xenografted in BALB/c nude mouse assessed as decrease in tumor weight at 0.15 mg/kg, iv irradiated with laser light at 120 J/cm2 measured 13 days post light irradiation. The format is functional, organism-based.
In data set [19] the test system is A549. Briefly: Photodynamic antitumor activity against human A549 cells xenografted in BALB/c nude mouse assessed as increase in tumor tissue damage at 0.15 mg/kg, iv irradiated with laser light at 120 J/cm2 measured 24 hrs post light irradiation by H and E staining based histological analysis. The format is functional, organism-based.
Data set [20] has as its system A549. As to the kind of experiment: Photodynamic antitumor activity against human A549 cells xenografted in BALB/c nude mouse assessed as increase in tumor tissue damage at 0.15 mg/kg, iv irradiated with laser light at 120 J/cm2 measured 24 hrs post light irradiation by TUNEL staining based histological analysis. The format is functional, organism-based.
Data set [21] relates to A549. As to the kind of experiment: Dark toxicity in human A549 cells xenografted in BALB/c nude mouse assessed as increase in limb tumor tissue damage at 0.15 mg/kg, iv measured 24 hrs post treatment by H and E staining based histological assay. The data set is classed as organism-based. To be noted: in vivo.
For data set [22], the system named is A549. As to the kind of experiment: Dark toxicity in human A549 cells xenografted in BALB/c nude mouse assessed as increase in limb tumor tissue damage at 0.15 mg/kg, iv measured 24 hrs post treatment by TUNEL staining based histological assay. The data set is classed as organism-based. To be noted: in vivo.
Data set [23] deals with A549. Briefly: Photodynamic antitumor activity against human A549 cells xenografted in BALB/c nude mouse assessed as increase in apoptosis at 0.15 mg/kg, iv irradiated with laser light at 120 J/cm2 measured 24 hrs post light irradiation by H and E staining based histological analysis. The data set is classed as functional, organism-based.
Data set [24] concerns A549. As to the kind of experiment: Photodynamic antitumor activity against human A549 cells xenografted in BALB/c nude mouse assessed as increase in necrosis at 0.15 mg/kg, iv irradiated with laser light at 120 J/cm2 measured 24 hrs post light irradiation by H and E staining based histological analysis. The data set is classed as functional, organism-based.
Data set [25] deals with A549. As to the kind of experiment: Photodynamic antitumor activity against human A549 cells xenografted in BALB/c nude mouse assessed as increase in apoptosis at 0.15 mg/kg, iv irradiated with laser light at 120 J/cm2 measured 24 hrs post light irradiation by TUNEL staining based histological analysis. The data set is classed as functional, organism-based.
The test system of data set [26] is A549. Briefly: Photodynamic antitumor activity against human A549 cells xenografted in BALB/c nude mouse assessed as increase in necrosis at 0.15 mg/kg, iv irradiated with laser light at 120 J/cm2 measured 24 hrs post light irradiation by TUNEL staining based histological analysis. The data set is classed as functional, organism-based.
For data set [27], the system named is A549. Briefly: Photodynamic cytotoxicity against human A549 cells assessed as reduction in cell viability at 0.1 to 0.9 uM preincubated for 24 hrs followed by compound washout and subsequent 650 nanometer laser light irradiation at 0.5 to 2 J/cm2 measured by MTT assay. The format is functional, cell-based.

Each structure is given as a SMILES string. The source made the active and inactive calls. The calls are words filed in the database; no cut-off is given here.

For `C=Cc1c(C)c2cc3nc(c(CC(=O)OC)c4[nH]c(cc5nc(cc1[nH]2)C(C)=C5CC)c(C)c4C(=O)NCCN/C(=N\C(=O)OC(C)(C)C)NC(=O)OC(C)(C)C)[C@@H](CCC(=O)OC)[C@@H]3C`, the Activity entry in the data set on A549 [1] is “Non-Toxic”; in the data set with A549 [2], “Non-Toxic”; in [4] it was 403 to 664 nm; in [5] it was 4 nm; in [7], 1.98; in the data set on A549 [10], “Dose-dependent effect”. The Activity entry with A549 [21] and in the data set on A549 [22] was “Non-Toxic” throughout. Further, the inhibition in vivo at 0.4 mg/kg in the data set on A549 [3] was 100%. Besides, the outcome in data set [6] was inactive. Also, the Drug uptake entry in data set [8], in data set [14], in data set [15] and in [16] was “Active” throughout. The IC50 (commonly the concentration that gives 50% inhibition) was 542 nM in the data set on A549 [9], 397 nM in the data set with A549 [11] and 197 nM in the data set on A549 [12]. In addition, the outcome in the data set on A549 [13], in the data set with A549 [17], with A549 [18], in the data set with A549 [19], with A549 [20] and in the data set with A549 [23] was Active. The outcome with A549 [24], in the data set with A549 [25] and in the data set with A549 [26] was Active.

As to `Oc1cccc(-c2c3nc(c(-c4cccc(O)c4)c4ccc([nH]4)c(-c4cccc(O)c4)c4nc(c(-c5cccc(O)c5)c5ccc2[nH]5)CC4)C=C3)c1` [TEMOPORFIN], the Activity result in the data set on A549 [1] was “Non-Toxic”; in the data set with A549 [2], “Non-Toxic”; in [7] it was 0.47 to 0.48. The IC50 in the data set on A549 [9] amounted to 1100 nM; in the data set on A549 [11], 779 nM; in the data set on A549 [12], 702 nM. The result in the data set with A549 [27], in the data set with A549 [17] and in the data set with A549 [18] was Active.

On to `C=Cc1c(C)c2cc3nc(c(CC(=O)OC)c4[nH]c(cc5nc(cc1[nH]2)C(C)=C5CC)c(C)c4C(=O)NCCNC(=N)N)[C@@H](CCC(=O)OC)[C@@H]3C`, for which the Activity entry is “Non-Toxic” in the data set with A549 [1]; “Non-Toxic” with A549 [2]; 403 to 664 nm in [4]; 4 nm in data set [5]; 2.03 in data set [7]; “Dose-dependent effect” in the data set with A549 [10]. Also, the Activity result in the data set on A549 [21] and in the data set on A549 [22] was “Non-Toxic” each time. The inhibition in vivo at 0.4 mg/kg in the data set on A549 [3] turned out to be 100%. Also, the result in data set [6] was inactive. The Drug uptake result in data set [8], in data set [14], in [15] and in data set [16] was “Active” throughout. In addition, the IC50 with A549 [9] amounted to 1260 nM; in the data set on A549 [11], 886 nM; in the data set on A549 [12], 545 nM. Also, the result in the data set with A549 [13], in the data set with A549 [17], in the data set on A549 [18], in the data set on A549 [19], in the data set on A549 [20] and in the data set with A549 [23] was Active. The result in the data set on A549 [24], in the data set on A549 [25] and in the data set with A549 [26] was Active.
